Key:
[1] = molecular target: BACE2 (Rattus norvegicus (Rat), UniProt Q6IE75); experiment: Assay for BACE inhibition by measuring cellular TMEM27 cleavage; assay type: cell-based; conditions: INS-TMEM27 (INS1e rat cell line, inducible hTMEM27); shed TMEM27 by ELISA
From the text: Assay for BACE Inhibition by Measuring Cellular TMEM27 Cleavage:
The assay uses the principle of inhibition of human TMEM27 cleavage by endogenous cellular BACE2 in the Ins1e rat cell line and shedding from the cell surface into the culture medium, followed by detection in an ELISA assay Inhibition of BACE2 prevents the cleavage and shedding in a dose-dependent manner.
The stable cell line “INS-TMEM27” represents an INS1e-derived cell line with inducible expression (using the TetOn system) of full-length hTMEM27 in a doxycycline-dependent manner. The cells are cultured throughout the experiment in RPMI1640+Glutamax (Invitrogen) Penicillin/Streptomycin, 10% Fetal bovine serum, […], […], 100 micrograms/ml G418 and 100 microgram/ml hygromycin and are grown inadherent culture at 37° C. in a standard CO2 cell culture incubator.
INS-TMEM27 cells are seeded in 96-well plates. After 2 days in culture, BACE2 inhibitor is added in a range of concentrations as required by the assay and after a further two hours, doxycycline is added to a final concentration of 500 ng/ml. The cells are incubated for a further 46 hours and the supernatant harvested for detection of shed TMEM27.
An ELISA assay (using a pair of mouse anti-human-TMEM27 antibodies, raised against the extracellular domain of TMEM27) is used for detection of TMEM27 in the culture medium. An EC50 for BACE2 inhibition is calculated using the ELISA readout for each inhibitor concentration with standard curve-fitting software such as XLFit for the Excel spreadsheet program.

[2] = molecular target: BACE1 (Homo sapiens (Human), UniProt P56817); experiment: Cellular Aβ-lowering assay; assay type: cell-based; conditions: HEK293 cells stably expressing human APP wt (APP695); Aβ40 in supernatant by ELISA after 18-20 hrs
Chain of BACE1 (P56817 46-501): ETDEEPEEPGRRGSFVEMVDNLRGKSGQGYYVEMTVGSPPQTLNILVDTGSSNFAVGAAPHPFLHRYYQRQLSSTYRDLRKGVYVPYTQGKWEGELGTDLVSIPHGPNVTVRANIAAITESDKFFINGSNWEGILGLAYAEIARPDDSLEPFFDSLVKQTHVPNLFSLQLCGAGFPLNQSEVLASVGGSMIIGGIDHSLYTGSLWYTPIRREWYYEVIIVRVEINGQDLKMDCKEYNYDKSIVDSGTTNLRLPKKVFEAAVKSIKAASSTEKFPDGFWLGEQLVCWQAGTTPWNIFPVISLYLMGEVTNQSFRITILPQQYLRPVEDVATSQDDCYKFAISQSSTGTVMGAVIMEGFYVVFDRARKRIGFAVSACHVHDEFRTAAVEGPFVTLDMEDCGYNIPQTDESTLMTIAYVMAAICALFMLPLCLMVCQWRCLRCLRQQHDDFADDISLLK
Protocol: Cellular Aβ-Lowering Assay: Human HEK293 cells which are stably transfected with a vector expressing a cDNA of the human APP wt gene (APP695) were used to assess the potency of the compounds in a cellular assay. The cells were seeded in 96-well microtiter plates in cell culture medium (Iscove, plus 10% (v/v) fetal bovine serum, glutamine, penicillin/streptomycin) to about 80% confluence and the compounds were added at a 10× concentration in 1/10 volume of medium without FCS containing 8% DMSO (final concentration of DMSO was kept at 0.8% v/v). After 18-20 hrs incubation at 37° C. and 5% CO2 in a humidified incubator the culture supernatant was harvested for the determination of Aβ40 concentrations. […] After blocking of non-specific binding sites with e.g. 1% BSA and washing, the culture supernatants were added in suitable dilutions together with a horseradish peroxidase-coupled Aβ detection antibody (e.g., antibody 4G8, Senetek, Maryland Heights, Mo.) and incubated for 5 to 7 hrs. Subsequently the wells of the microtiter plate were washed extensively with Tris-buffered saline containing 0.05% Tween 20 and the assay was developed with tetramethylbenzidine/H2O2 in citric acid buffer. After stopping the reaction with one volume […] the reaction was measured in an ELISA reader at 450 nm wavelength. The concentrations of Aβ in the culture supernatants were calculated from a standard curve obtained with known amounts of pure Aβ peptide.

Chain of BACE2 (Q6IE75 63-514): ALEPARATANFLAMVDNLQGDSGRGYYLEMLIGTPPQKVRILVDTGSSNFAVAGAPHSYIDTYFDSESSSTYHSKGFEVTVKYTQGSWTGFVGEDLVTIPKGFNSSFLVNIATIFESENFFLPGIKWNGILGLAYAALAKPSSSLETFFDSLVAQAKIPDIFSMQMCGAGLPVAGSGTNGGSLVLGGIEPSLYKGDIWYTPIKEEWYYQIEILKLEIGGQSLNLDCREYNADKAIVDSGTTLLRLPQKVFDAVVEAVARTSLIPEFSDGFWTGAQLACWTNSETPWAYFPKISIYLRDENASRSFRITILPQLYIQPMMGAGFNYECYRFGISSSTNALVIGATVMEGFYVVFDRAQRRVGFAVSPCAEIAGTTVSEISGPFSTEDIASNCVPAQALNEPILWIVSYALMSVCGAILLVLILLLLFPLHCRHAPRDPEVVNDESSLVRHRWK

SMILES | IC50 [1] [nM] | IC50 [2] [nM]
C[C@]1(c2cc(NC(=O)c3ccc(Cl)cn3)ccc2F)N=C(N)OC[C@@H]1F [Example 1, 5-Chloro-pyridine-2-carboxylic acid [3-((4R,5R)-2-amino-5-fluoro-4-methyl-5,6-dihydro-4H-[1,3]oxazin-4-yl)-4-fluoro-phenyl]-amide] | 1 | 0.4
C[C@]1(c2cc(NC(=O)c3ccc(F)cn3)ccc2F)N=C(N)OC[C@@H]1F [Example 20, 5-Fluoro-pyridine-2-carboxylic acid [3-((4R,5R)-2-amino-5-fluoro-4-methyl-5,6-dihydro-4H-[1,3]oxazin-4-yl)-4-fluoro-phenyl]-amide] | 7 | 10
C[C@]1(c2cc(NC(=O)c3ccc(OCF)cn3)ccc2F)N=C(N)OC[C@@H]1F [Example 5, 5-Fluoromethoxy-pyridine-2-carboxylic acid [3-((4R,5R)-2-amino-5-fluoro-4-methyl-5,6-dihydro-4H-[1,3]oxazin-4-yl)-4-fluoro-phenyl]] | 106 | 1
C[C@]1(c2cc(NC(=O)c3ncc(C#N)cc3Cl)ccc2F)N=C(N)OC[C@@H]1F [Example 7, 3-Chloro-5-cyano-pyridine-2-carboxylic acid [3-((4R,5R)-2-amino-5-fluoro-4-methyl-5,6-dihydro-4H-[1,3]oxazin-4-yl)-4-fluoro-phenyl]-amide] | 10 | 2
C[C@]1(c2cc(NC(=O)c3cnc(C(F)F)cn3)ccc2F)N=C(N)OC[C@@H]1F [Example 15, 5-Difluoromethyl-pyrazine-2-carboxylic acid [3-((4R,5R)-2-amino-5-fluoro-4-methyl-5,6-dihydro-4H-[1,3]oxazin-4-yl)-4-fluoro-phenyl]-amide] | 23 | 5
C[C@]1(c2cc(NC(=O)c3ncc(F)cc3F)ccc2F)N=C(N)OC[C@@H]1F [Example 3, 3,5-Difluoro-pyridine-2-carboxylic acid [3-((4R,5R)-2-amino-5-fluoro-4-methyl-5,6-dihydro-4H-[1,3]oxazin-4-yl)-4-fluoro-phenyl]-amide] | 7 | 1
C[C@]1(F)COC(N)=N[C@]1(C)c1cc(NC(=O)C2CC2(F)F)ccc1F (stereo partly drawn) [Example 44, 2,2-Difluoro-cyclopropanecarboxylic acid [3-((4R,5R)-2-amino-5-fluoro-4,5-dimethyl-5,6-dihydro-4H-[1,3]oxazin-4-yl)-4-fluoro-phenyl]-amide] | 140 | 32
C[C@]1(c2cc(NC(=O)c3ncc(C(F)(F)F)cc3Cl)ccc2F)N=C(N)OC[C@H]1F [Example 36, 3-Chloro-5-trifluoromethyl-pyridine-2-carboxylic acid [3-((4R,5S)-2-amino-5-fluoro-4-methyl-5,6-dihydro-4H-[1,3]oxazin-4-yl)-4-fluoro-phenyl]-amide] | 4030 | 140
C[C@]1(c2cc(NC(=O)c3ccc(OCC(F)(F)F)cn3)ccc2F)N=C(N)OC[C@@H]1F [Example 17, 5-(2,2,2-Trifluoro-ethoxy)-pyridine-2-carboxylic acid [3-((4R,5R)-2-amino-5-fluoro-4-methyl-5,6-dihydro-4H-[1,3]oxazin-4-yl)-4-fluoro-phenyl]-amide] | 2300 | 8
C[C@]1(c2cc(NC(=O)c3ncc(Cl)cc3Cl)ccc2F)N=C(N)OC[C@@H]1OCC(F)(F)F [Example 48, 3,5-Dichloro-pyridine-2-carboxylic acid {3-[(4R,5R)-2-amino-4-methyl-5-(2,2,2-trifluoro-ethoxy)-5,6-dihydro-4H-[1,3]oxazin-4-yl]-4-fluoro-phenyl}-amide] | 67 | 3
C[C@]1(F)COC(N)=N[C@]1(C)c1cc(NC(=O)c2nn(CC(F)F)cc2Cl)ccc1F [Example 43, 4-Chloro-1-(2,2-difluoro-ethyl)-1H-pyrazole-3-carboxylic acid [3-((4R,5R)-2-amino-5-fluoro-4,5-dimethyl-5,6-dihydro-4H-[1,3]oxazin-4-yl)-4-fluoro-phenyl]amide] | 110 | 183
